In patent publication EP0585206B1, “Tryptamines for treatment of circadian rhythm disorders” (I.F.L.O. S.a.s. di Giorgio e Aldo Laguzzi, priority 1992, dated 1994):

Assays:
[1] = system: N-acetyl-5-methoxytryptamine receptors; assay: biological activity by classical tests (agonist/antagonist character)
Method: (§1) All the substances were evaluted for their relative affinity and were tested for biological activity by using classical tests.

[2] = target: N-acetyl-5-methoxytryptamine receptors; assay: relative affinity for the specific N-acetyl-5-methoxytryptamine receptors; assay type: binding; details: association constant; SE printed in a separate column
Method: as §1

Structure (SMILES)	Activity [1]	Ka ± SE [2] [L/mol]
COc1ccc2[nH]c(C)c(CCNC(C)=O)c2c1 [Compound 4a]	Agonist	–
COc1ccc2[nH]c(-c3ccccc3)c(CCNC(C)=O)c2c1 [Compound 4d]	Antagonist	–
COc1ccc2[nH]c(C)c(CCNC(=O)C3CC3)c2c1 [Compound 4e]	Agonist	–
COc1ccc2[nH]c(-c3ccccc3)c(CCNC(=O)C3CC3)c2c1 [Compound 4g]	Partial antagonist	4.1e+09
COc1ccc2[nH]c(Br)c(CCNC(C)=O)c2c1 [Compound 4j, N-acetyl-2-bromo-5-methoxy tryptamine]	Agonist	–
COc1ccc2[nH]c(I)c(CCNC(C)=O)c2c1 [Compound 4k]	Agonist	–
COc1cc2c(CCNC(C)=O)c(Br)[nH]c2cc1Br [Compound 4l]	Agonist	–

The remaining lines, values ahead:

Activity [1]	Ka ± SE [2] [L/mol]	Structure (SMILES)
Partial antagonist	–	COc1ccc2[nH]c(C3CCCCC3)c(CCNC(C)=O)c2c1 [Compound 4c]
Agonsit	–	COc1ccc2[nH]c(Br)c(CCNC(=O)C3CC3)c2c1 [Compound 4h]
Agonist	–	COc1ccc2[nH]c(I)c(CCNC(=O)C3CC3)c2c1 [Compound 4i]
Agonist	–	COc1ccc2[nH]cc(CCNC(C)=O)c2c1 [Melatonin, N-Acetyl-5-methoxytryptamine, reference compound]
